In patent publication US6392085B1, “Therapeutic nucleosides” (SmithKline Beecham Corporation, priority 1992, dated 2002):
Like-named read-outs stand apart in the source and are kept apart here.

Assays:
[1] = system: human bon marrow progenitor cells (CFU-GM); test: Toxicity in human bone marrow progenitor cells in vitro, CFU-GM; type: cell-based
Protocol: (§1) Compounds of formula (I) were tested fortoxicity in human bon marrow progenitor cells, in vitro, by the method of Dornsife, R. E. et at., 1991, Antimicrob. Agents Chemother., 35: 322-328. Three separate assays were performed using marrow from three different donors.

[2] = system: herpes simplex virus type 1 (HSV-1); settings: J. Med. Chem. 1987, 30, 746-749; Biochem. Pharmacol. 1990, 40, 1515-1522; especially the (+)-enantiomer; cited from earlier work
[3] = system: hepatitis B viral replication; settings: Proc. Natl. Acad. Sci. USA 1989, 86, 8541-8544; cited from earlier work
[4] = system: human bon marrow progenitor cells (BFU-E); test: Toxicity in human bone marrow progenitor cells in vitro, BFU-E; type: cell-based; settings: 50% inhibition of bone marrow progenitor cells; three assays, marrow from three donors
Protocol: as §1

[5] = system: Human cytomegalovirus (HCMV); test: Anti-HCMV plaque reduction assay in monolayers of MRCS cells (human embryonic lung); type: cell-based; settings: Human betaherpesvirus 5, 50% inhibitory concentration estimated from dose-response curve
Protocol: Human cytomegalovirus (HCMV) is assayed in monolayers of MRCS cells (human embryonic lung) in multiwell trays. Activity of compounds is determined in the plaque reduction assay, in which a cell monolayer is infected with a suspension of HCMV. A range of concentrations of the compound to be tested (of known moiarity) is then incorporated into the carboxymethyl cellulose overlay. Plaque numbers of each concentration are expressed as percentage of the control and a dose-response curve is drawn. From this curve the 50% inhibitory concentration (IC50) is estimated.

[6] = 50% inhibition of bone marrow progenitor cells, three assays, marrow from three donors

Structure (SMILES)	melting point [°C]	Cell Toxicity I50 CFU-GM [1] [µM]	activity against HSV-1 [2]	inhibition of hepatitis B viral replication [3]	Cell Toxicity I50 BFU-E [4]	IC50 [5] [µM]	Cell Toxicity I50 CFU-GM [1, 6] [µM]
Nc1nc2c(ncn2[C@@H]2C[C@H](CO)[C@@H](O)C2)c(=O)[nH]1 (relative stereo) [2′-CDG, (1R*, 3S*, 4R)-2-amino-1,9-dihydro-9-[3-hydroxy-4-hydroxymethyl)cyclopentyl]-6H-purine-6-one, reference compound]		0.4 ± 0.3	active against herpes simplex virus type 1	inhibits hepatitis B viral replication	4 ± 2 µM		
Nc1nc(NCC2CC2)c2ncn([C@@H]3C[C@H](CO)[C@@H](O)C3)c2n1 (racemic) [Ex. 22, (±) (1S, 2R, 4R)-4-[2-Amino-6-(cyclopropylmethylamino)-9H-purin-9-yl]-2-(hydroxymethyl)-1-cyclopentanol]					>>50 μM	3.1	34 ± 14
Cl.Cl.Nc1nc(NC2CC2)c2ncn([C@H]3C[C@@H](CO)[C@H](O)C3)c2n1 (stereo in doubt)	> 250						

Further lines, with some results ahead:

melting point [°C]	Structure (SMILES)	Cell Toxicity I50 CFU-GM [1] [µM]	activity against HSV-1 [2]	inhibition of hepatitis B viral replication [3]	Cell Toxicity I50 BFU-E [4]	IC50 [5] [µM]	Cell Toxicity I50 CFU-GM [1, 6] [µM]
174 to 176	Nc1nc(NC2CC2)c2ncn([C@@H]3C[C@H](CO)[C@@H](O)C3)c2n1 (stereo in doubt) [Ex. 23, (±)-(1S, 2R, 4R)-4-[2-Amino-6-(cyclopropylamino)-9H-purin-9-yl]-2-(hydroxymethyl)-1-cyclopentanol]				55 ± 15 µM	2.8	14 ± 1
181 to 182	Nc1nc(OC2CCCC2)c2ncn([C@@H]3C[C@H](CO)[C@@H](O)C3)c2n1 (racemic) [Example 28, (±)-(1S, 2R, 4R)-4-(2-Amino-6-(cyclopentyloxy)-9H-purin-9-yl)-2-(hydroxymethyl)-1-cyclopentanol]						
